The test system of one assay is Akt. In words: Immunoblot for phosphoAKT in spinal cord cultures. Type of assay: cell-based, rat. (Immunoblotting shows a protein as a band on a membrane.)
The next assay concerns src-family kinases (SFK). In words: Immunoblot for active SFKs (clone 28 antibody) in spinal cord cultures. It counts as cell-based, rat. The settings on record: 24 hours treatment. As for the experimental part: Cells were lysed in 1% NP-40 lysis buffers containing protease inhibitors, subjected to SDS-PAGE and immunoblotted as previously described (Fryer et al., 1999; Fryer et al., 2000). For immunoprecipitation, lysates from 60 mm dishes were pre-cleared by incubation with protein A beads (Santa Cruz), incubated with primary antibody (4 μg/ml)×2 hours then 50 μL of beads added and incubated overnight with gentle agitation at 4° C. Beads were pelleted, washed 5× with 10 mM Tris pH 7.4+0.5 mM EGTA+0.5 mM EDTA+0.1% NP40 before elution in 1× Laemelli sample buffer. Antibody sources: BD Transduction Labs—TrkB and MAP Kinase used at 1:500, Cell Signaling—Akt 1:1000; phosphoTrk (tyr490) 1:1000; phospho p42/44 MAP Kinase (thr 202/tyr204) 1:1000; phosphoAkt (ser473) 1:500; IGFI antibody (tyr 1131) 1:500. Upstate—adenosine A2a 1:1000. Sigma—actin 1:200. Biosource—active src (clone 28) 1:200.
The precise mechanism by which G-protein coupled receptors trans-activate receptor tyrosine kinases is complex and to some extent receptor-subtype specific (Luttrell et al., 1999; Downward, 2003; Piiper and Zeuzem, 2004; Waters et al., 2004). […] If this pathway was operative in spinal cord neurons, then antagonism of adenosine A2a receptors might lead to reduced src activation and antagonism of SFKs might be neuro-protective. Src is negatively regulated by phosphorylation of tyrosine 529 (refers to human src sequence) and an antibody that recognizes a de-phospho epitope in this region (“clone 28”) is a reliable measure of active src and SFKs (Kawakatsu et al., 1996). We began by asking for adenosine A2a receptors and active SFKs are present in the same cells and if so, their subcellular distribution. Pure motor neurons, grown in the presence of BDNF were immunostained with a rabbit anti-adenosine A2a receptor and the clone 28 antibody. One hundred percent of motor neurons expressed both antigens and on dendrites, the immunoreactivity formed discrete fine puncta (FIG. 5a). Many, but not all, puncta were stained with both antibodies. […]

SMILES strings stand for the structures.

Protocol for purified motor neurons: Embryonic Sprague-dawley rat spinal cord neurons were grown on previously established cortical astrocyte monolayers as previously described (Hu and Kalb, 2003). Briefly, the cerebral cortex of postnatal day (P) 1-3 rat pups was dissociated and plated on tissue culture plastic (Primeria) or laminin/polylysine coated glass overslips and maintained in Minimal Essential Media (10% horse serum, 10% fetal bovine serum) and 10 μM AraC was added for 1 day to arrest further proliferation when confluent. Under these conditions, no cortical neurons are present in these cultures. […]
The media was removed (and saved), cells were exposed to 100 μM kainic acid or vehicle in Locke's buffer for one hour, washed three times in Locke's buffer not containing kainic acid and the original media restored to each dish (Hu and Kalb, 2003). […] To quantify the number of stained cells, we counted the number of labeled cells from three non-overlapping fields using a 5× objective on a Zeiss upright Axioskop microscope and the value from one coverslip was averaged. […] When cell body diameter was assessed in select experiments, a reticule was introduced into an eye piece and the length of the long axis of a neuron noted. […]

In the case of `CCCn1c(=O)[nH]c(=O)c2[nH]cnc21` [enprofylline, 3-propylxanthine], the “abundance of phosphoAKT” value in the assay with Akt (6 and 24 hours, 100 μM enprofylline, 30 nM CEP-4416) was “decrease in the abundance of phosphoAKT and phosphoMAPK at 6 and 24 hours”; with Akt (24 hours post drug administration), “robust reduction in phosphoTrk, phosphoMAPK and phosphoAKT”; with Akt (48 hours post drug administration), “remained depressed”. Moreover, the “phosphorylation of Akt” value in the assay on Akt (6 hours post drug administration) was “decreases in the phosphorylation of Trk, MAP kinase and Akt”. In addition, in the assay on purified motor neurons (24 hours pre-treatment, grown in BDNF+CT1), the “% motor neuron death after excitotoxic insult” value is on record as 3±1%. For the same compound, in the assay on purified motor neurons (pre-treated for 24 hrs), the “death of motor neurons after kainic acid” value is recorded as “No death of motor neurons occurred”. For the same compound, the “abundance of active SFKs” value is listed as “reduced” in the assay on src-family kinases (SFK) and “caused a reduction in the abundance of active SFKs” in the assay with src-family kinases (SFK) (listed as Enprofylline).
